Assay results taken from patent publication US20230338609A1, “MEDICAL DEVICES AND MATERIALS COMPRISING BIODEGRADABLE POLYESTERS” (AMICOAT AS, priority 2020, published 2023).
≈ marks a conversion by molar mass, not a printed value.

Experiments:
[1] = test system: Enterococcus gallinarum vancomycin-resistant (VanC) clinical isolate; type: cell-based
From the text: (§1) Cation-adjusted Mueller-Hinton broth (Oxoid Ltd., Basingstoke, UK and Trek Diagnostic Systems Ltd., East Grinstead, UK) (supplemented with 5% laked horse blood for Streptococcus spp., Corynebacterium jeikeium and Listeria monocytogenes) was used for aerobic bacteria, with an initial inoculum of approximately 10^5 colony-forming units (CFU)/mL.

[2] = test system: Staphylococcus aureus ATCC 25923 - antibiotic-susceptible control strain; type: cell-based
From the text: as §1

[3] = test system: Moraxella catarrhalis - reduced fluoroquinolone susceptibility clinical isolate; type: cell-based
From the text: as §1

[4] = test system: Staphylococcus epidermidis methicillin-resistant clinical isolate; type: cell-based
From the text: as §1

[5] = test system: Moraxella catarrhalis - β -lactamase positive clinical isolate; type: cell-based
From the text: as §1

[6] = test system: Staphylococcus aureus ATCC 43300 - methicillin-resistant control strain; type: cell-based
From the text: as §1

[7] = test system: Staphylococcus saprophyticus - antibiotic susceptible clinical isolate; type: cell-based
From the text: as §1

[8] = test system: Corynebacterium jeikeium - antibiotic-susceptible clinical isolate; type: cell-based
From the text: as §1

[9] = test system: HT2001254 Staphylococcus aureus (MRSA) - PVL positive; type: cell-based
From the text: as §1

[10] = test system: Streptococcus agalactiae - antibiotic-susceptible clinical isolate; type: cell-based
From the text: as §1

[11] = test system: Staphylococcus haemolyticus - antibiotic susceptible clinical isolate; type: cell-based
From the text: as §1

[12] = test system: Pseudomonas aeruginosa - multi-drug resistant clinical isolate; type: cell-based
From the text: as §1

[13] = test system: Staphylococcus epidermidis antibiotic susceptible clinical isolate; type: cell-based
From the text: as §1

[14] = test system: Corynebacterium jeikeium - multi-drug resistant clinical isolate; type: cell-based
From the text: as §1

[15] = test system: Staphylococcus aureus - methicillin-resistant clinical isolate; type: cell-based
From the text: as §1

[16] = test system: Streptococcus bovis - macrolide-resistant clinical isolate; type: cell-based
From the text: as §1

[17] = test system: EMRSA15 Staphylococcus aureus (MRSA) - SSCmec type 4; type: cell-based; details: EMRSA15 - SSCmec type 4
From the text: as §1

[18] = test system: Staphylococcus aureus ATCC 29213 - antibiotic-susceptible control strain; type: cell-based
From the text: as §1

[19] = test system: EMRSA3 Staphylococcus aureus (MRSA) - SSCmec type 1; type: cell-based; details: EMRSA3 - SSCmec type 1
From the text: as §1

[20] = test system: P. aeruginosa; details: Table 5
[21] = test system: Cryptococcus neoformans - G.R. Micro collection; type: cell-based
Procedure: (§2) Yeast and filamentous fungal MIC were performed in MOPS buffered RPMI 1640 medium (MOPS buffer obtained from Sigma Aldrich Ltd., RPMI 1640 obtained from Invitrogen Ltd, Paisley, Scotland). The yeast inocula were in the range 7.5×10^2-4×10^3 CFU/mL and the filamentous fungi approximately 8×10^3-1×10^5 CFU/mL

[22] = test system: Trichophyton mentagrophytes - G.R. Micro collection; type: cell-based
Procedure: as §2

[23] = test system: Candida (Issatchenkia) krusei ATCC6258 - reference strain; type: cell-based
Procedure: as §2

[24] = test system: Candida tropicalis ATCC750 - reference strain; type: cell-based
Procedure: as §2

[25] = test system: Methicillin resistant Staphylococcus epidermidis (MRSE) strain ATCC 27626; details: ATCC 27626
[26] = test system: S. pyogenes; details: Table 5
[27] = test system: Methicillin resistant Staphylococcus aureus (MRSA) strain ATCC 33591; details: ATCC 33591
[28] = test system: Staphylococcus aureus, strain ATCC 25923; details: ATCC 25923
[29] = test system: E. coli; details: Table 5
[30] = test system: C. albicans; details: Table 5
[31] = test system: Streptococcus pyogenes CS301; assay: Murine skin infection model, topical treatment; type: in vivo; details: mice
Procedure: (§3) The skin of mice was infected with Staphylococcus aureus or Streptococcus pyogenes and subsequently given a total of three treatments at three hourly intervals. Three hours after the last treatment, skin biopsies were collected and the number of colony forming units (CFUs) present in the skin sample was determined. Results are shown in FIGS. 1 and 2, expressed as the number of colony forming units per mouse.
as §3, with “3, 4” for “1”, “5” for “2,”

[32] = test system: Staphylococcus aureus FDA486; assay: Murine skin infection model, topical treatment; type: in vivo; details: mice; cream or gel containing 2% (w/w); three treatments at three hourly intervals; biopsy three hours after last
Procedure: as §3
as §3, with “3, 4” for “1”, “5” for “2,”

For `CC(C)NC(=O)[C@H](CCCNC(=N)N)NC(=O)[C@H](Cc1c(C(C)(C)C)[nH]c2c(C(C)(C)C)cc(C(C)(C)C)cc12)NC(=O)[C@@H](N)CCCNC(=N)N` [Compound 7], the MIC [1] was 8 µg/mL (≈ 11 µM), the MIC [2] was 8 µg/mL (≈ 11 µM) and the MIC [3] was 8 µg/mL (≈ 11 µM). For the same molecule, the MIC [4] was 4 µg/mL (≈ 5.51 µM), the MIC [5] was 4 µg/mL (≈ 5.51 µM) and the MIC [6] was 8 µg/mL (≈ 11 µM). For the same molecule, the MIC [7] was 2 µg/mL (≈ 2.75 µM), the MIC [8] was 8 µg/mL (≈ 11 µM) and the MIC [9] was 8 µg/mL (≈ 11 µM). For the same molecule, the MIC [10] was 8 µg/mL (≈ 11 µM), the MIC [11] was 4 µg/mL (≈ 5.51 µM) and the MIC [12] was 8 µg/mL (≈ 11 µM). The MIC [13] was 4 µg/mL (≈ 5.51 µM), the MIC [14] was 8 µg/mL (≈ 11 µM) and the MIC [15] was 8 µg/mL (≈ 11 µM). It also gave an MIC [16] of 8 µg/mL (≈ 11 µM), an MIC [17] of 8 µg/mL (≈ 11 µM) and an MIC [18] of 8 µg/mL (≈ 11 µM). The MIC [19] was 8 µg/mL (≈ 11 µM), the “P. aeruginosa (MIC)” value [20] was 7 µg/mL and the MIC [21] was 8 µg/mL (≈ 11 µM). For the same molecule, the MIC [22] was 8 µg/mL (≈ 11 µM), the MIC [23] was 8 µg/mL (≈ 11 µM) and the MIC [24] was 4 µg/mL (≈ 5.51 µM). The “MRSE (MIC)” value [25] was under 2 µg/mL, the “S. pyogenes (MIC)” value [26] was under 2 µg/mL and the “MRSA (MIC)” value [27] was under 2 µg/mL. The “S. aureus (MIC)” value [28] was under 2 µg/mL, the “E. coli (MIC)” value [29] was 7 µg/mL and the “C. albicans (MIC)” value [30] was 25 µg/mL. The “number of CFUs in skin biopsy vs placebo gel and bactroban” value ([31]; 1% or 2% gel, three treatments at three hourly intervals) was “more effective at reducing the number of CFUs from a Streptococcus pyogenes CS 301 infection than the placebo gel or the bactroban”, the “number of CFUs in skin biopsy, 2% gel compared with 1% gel” value ([31]; 2% gel vs 1% gel) was “more effective than the gel containing only 1% of compound 7” and the “number of CFUs in skin biopsy vs placebo” value [32] was “the number of CFUs was reduced”.
